Measurements reported in publication PMC9794833, “Ligand recognition and activation of neuromedin U receptor 2” (Nature Communications, 2022).
Where “and” joins values, the source holds several entries; their conditions need not be identical. Equal entries are not always repeated. Where two headings read alike, the source gives them in different places. Where no end group is shown, it is not given here.

Legend:
Format in all cases: cell-based
NMU2 W281A = target: T1, NMU2 W281A (Homo sapiens, UniProt Q9GZQ4, W281A); assay: TRUPATH assay, NMU2 mutant W281A
T1 construct: HA signal peptide (N); expressed in transfected cells; host or cells: HEK 293F
T1 sequence (Q9GZQ4 whole entry W281A): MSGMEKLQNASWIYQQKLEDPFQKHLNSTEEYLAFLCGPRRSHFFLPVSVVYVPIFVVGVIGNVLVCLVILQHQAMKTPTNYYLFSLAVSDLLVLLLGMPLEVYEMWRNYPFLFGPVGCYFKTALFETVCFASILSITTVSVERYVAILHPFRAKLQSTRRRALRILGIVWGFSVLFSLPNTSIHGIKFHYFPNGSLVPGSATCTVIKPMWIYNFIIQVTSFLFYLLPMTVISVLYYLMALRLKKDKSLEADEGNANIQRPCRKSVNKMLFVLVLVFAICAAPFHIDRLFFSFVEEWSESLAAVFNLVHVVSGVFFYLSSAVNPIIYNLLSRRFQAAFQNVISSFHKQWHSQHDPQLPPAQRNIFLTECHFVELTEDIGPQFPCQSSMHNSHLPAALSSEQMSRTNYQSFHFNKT
Experimental: (§1) The plasmids of Gαi1, Gβ3, and Gγ9 used for the TRUPATH assay were purchased from Addgene (TRUPATH Kit, #1000000163). NMU2 constructs of WT and mutants were constructed into a PTT5 vector (Invitrogen) with an N-terminal HA signal peptide followed by a Flag tag. HEK 293F cells were transiently transfected with WT or mutants of NMU2, Gαi1, Gβ3, and Gγ9 at an […] ratio of 4:1:1:1 with a total of 3500 ng plasmid DNA using a transfection reagent (PEI MAX 2000, Polysciences) and cultivated at 37 °C with 5 % CO2. Cells were collected after 48-h transfection. The expression level of the receptor was measured by incubating 10 μl cells with 15 μl TBS buffer supplemented with 4% bovine serum albumin, 20% (v/v) viability staining solution7-AAD (Invitrogen, Cat#00-6993-50), and ANTI-FLAG M2-FITC antibody (Sigma, F4049; 1:100 diluted by TBS) at 4 °C for 20 min. After incubation, 175 μl TBS buffer was added, and the fluorescence signal on the cell surface was detected by an FCM (flow cytometry) reader (Millipore). The cells were diluted with 1× HBSS (Hank’s balanced salt solution) balanced buffer supplemented with 25 mM HEPES, pH 7.4, and seeded onto the 96-well opaque cell culture plates (Beyotime) at a density of 18,000 cells per well by 60 μl. Freshly prepared 50 μM coelenterazine 400a (Nanolight Technologies) was added into the well by 10 μl. After a 5 min equilibration time in the darkness, plates were then read in a Synerg^TM H1 microplate reader (BioTek) with excitation at 395 nm and emission at 410 and 515 nm by serially three times. Then, 30 μl of 3.3× agonists were added into the wells with a gradient final concentration from 10^−4–10^−13 M. Plates were read immediately again by serially five times. Data were processed and analyzed following the method in the literature by using GraphPad Prism 8.0.

NMU2 E102A [1] = target: T2, NMU2 E102A (Homo sapiens, UniProt Q9GZQ4, E102A); assay: IP accumulation assay, NMU2 mutant E102A; conditions: IP accumulation
T2 construct: HA signal peptide (N); expressed in transfected cells; host or cells: HEK 293F
T2 sequence (Q9GZQ4 whole entry E102A): as the sequence (Q9GZQ4 whole entry W281A) above, with E102A, A281W counted along it
Experimental: (§2) NMU2 constructs of WT and mutants were constructed into PTT5 vector (Invitrogen), as mentioned above. HEK 293F cells were transiently transfected with WT or mutants with total of 2000 ng plasmid DNA using transfection reagent (PEI MAX 2000, Polysciences) and cultivated at 37 °C with 5% CO2. Cells were collected after 48-h transfection. IP accumulation was tested by IP-One Gq assay kit (Cisbio Bioassays, 62IPAPEJ) following the instruction manual. In general, cells were resuspended with 1× HBSS buffer containing 20 mM LiCl (stimulation buffer) and seeded into the white 384-well microplates (Proxi Plate^TM-384 Plus, PerkinElmer) with a density of 20,000 per well. Cells were preincubated with 10^−5 M R-PSOP (provided by Boehringer Ingelheim company, Germany) and gradient concentration from 10^−4 to 10^−11 M of NMU-25 or gradient concentration 10^−4 to 10^−11 M of NMU-25 alone in stimulation buffer at 37 °C for 90 min. The cryptate-labeled anti-IP1 monoclonal antibody and d2-labeled IP1 were diluted with lysis & detection buffer (1:20) and added to each well by 3 μl, respectively. The plates were incubated at room temperature for 60 minutes and then read in a Synerg^TM H1 microplate reader (BioTek) with excitation at 330 nm and emission at 620 and 665 nm. The IP1 production was calculated by a standard dose–response curve and analyzed by GraphPad Prism 8.0.

NMU2 F284A = target: T3, NMU2 F284A (Homo sapiens, UniProt Q9GZQ4, F284A); assay: TRUPATH assay, NMU2 mutant F284A
T3 construct: HA signal peptide (N); expressed in transfected cells; host or cells: HEK 293F
T3 sequence (Q9GZQ4 whole entry F284A): as the sequence (Q9GZQ4 whole entry W281A) above, with A281W, F284A counted along it
Experimental: as §1

NMU2 E127A = target: T4, NMU2 E127A (Homo sapiens, UniProt Q9GZQ4, E127A); assay: IP accumulation assay, NMU2 mutant E127A; conditions: IP accumulation
T4 construct: HA signal peptide (N); expressed in transfected cells; host or cells: HEK 293F
T4 sequence (Q9GZQ4 whole entry E127A): as the sequence (Q9GZQ4 whole entry W281A) above, with E127A, A281W counted along it
Experimental: as §2

NMU2 E102A [2] = target: T2, NMU2 E102A; assay: TRUPATH assay, NMU2 mutant E102A
Experimental: as §1, with “The cells were diluted with 1× HBSS (Hank’s balanced salt solution) balanced buffer supplemented with 25 mM HEPES, pH 7.4, and seeded onto the 96-well opaque cell culture plates (Beyotime) at a density of 18,000 cells per well by 60 μl. Freshly prepared 50 μM coelenterazine 400a (Nanolight Technologies) was added into the well by 10 μl.” left out, “Data were processed and analyzed following the method in the literature by using GraphPad Prism 8.0.” left out

NMU2 F131L = target: T5, NMU2 F131L (Homo sapiens, UniProt Q9GZQ4, F131L); assay: IP accumulation assay, NMU2 mutant F131L; conditions: IP accumulation
T5 construct: HA signal peptide (N); expressed in transfected cells; host or cells: HEK 293F, transient transfection, PTT5 vector
T5 sequence (Q9GZQ4 whole entry F131L): as the sequence (Q9GZQ4 whole entry W281A) above, with F131L, A281W counted along it
Experimental: as §2

NMU2 F305A = target: T6, NMU2 F305A (Homo sapiens, UniProt Q9GZQ4, F305A); assay: TRUPATH assay, NMU2 mutant F305A
T6 construct: HA signal peptide (N); expressed in transfected cells; host or cells: HEK 293F
T6 sequence (Q9GZQ4 whole entry F305A): as the sequence (Q9GZQ4 whole entry W281A) above, with A281W, F305A counted along it
Experimental: as §1

NMU2 F126A = target: T7, NMU2 F126A (Homo sapiens, UniProt Q9GZQ4, F126A); assay: TRUPATH assay, NMU2 mutant F126A
T7 construct: HA signal peptide (N); expressed in transfected cells; host or cells: HEK 293F
T7 sequence (Q9GZQ4 whole entry F126A): as the sequence (Q9GZQ4 whole entry W281A) above, with F126A, A281W counted along it
Experimental: as §1

NMU2 F291A = target: T8, NMU2 F291A (Homo sapiens, UniProt Q9GZQ4, F291A); assay: TRUPATH assay, NMU2 mutant F291A
T8 construct: HA signal peptide (N); expressed in transfected cells; host or cells: HEK 293F
T8 sequence (Q9GZQ4 whole entry F291A): as the sequence (Q9GZQ4 whole entry W281A) above, with A281W, F291A counted along it
Experimental: as §1

NMU2 N306Q = target: T9, NMU2 N306Q (Homo sapiens, UniProt Q9GZQ4, N306Q); assay: TRUPATH assay, NMU2 mutant N306Q
T9 construct: HA signal peptide (N); expressed in transfected cells; host or cells: HEK 293F
T9 sequence (Q9GZQ4 whole entry N306Q): as the sequence (Q9GZQ4 whole entry W281A) above, with A281W, N306Q counted along it
Experimental: as §1

[3] = read-out: pEC50 mean±SEM (converted)
[4] = read-out: pEC50±SEM, NmU-25 alone (converted)

FRVDEEFQSPFASQSRGYFLFRPRN-NH2 [NmU-25]
EC50 ratio EC50(mutant)/EC50(WT) (NMU2 W281A): 24 | Span (window between Emax and minimal agonist response) (NMU2 W281A): 55±9 % of WT | G protein activation (TRUPATH), dose-response point (NMU2 W281A; Log [agonist] M -4): 31.1201 and 49.629 | ΔpEC50 (from WT) (NMU2 W281A; individual experiments): -1.673 and -1.545 and -1.465 | EC50 (NMU2 W281A; read-out: EC50): 814 nM | EC50 (NMU2 W281A; [3]): 813 nM | EC50 (NMU2 E102A [1]; read-out: EC50, NmU-25 alone): 1700 nM | EC50 (NMU2 E102A [1]; [4]): 1700 nM | NmU-25–induced G protein activation of NMU2 (NMU2 F284A; Log [NmU-25] M -4, single replicates): 51.7867 and 36.0609 and 47.0977 | NmU-25–induced G protein activation of NMU2 (NMU2 F284A; Log [NmU-25] M -5, single replicates): 36.8137 and 51.0666 and -1.433 and 5.137 and 15.0834 | NmU-25–induced G protein activation of NMU2 (NMU2 F284A; Log [NmU-25] M -6, single replicates): -9.689 and 18.4963 and 20.7431 and 10.1867 and 6.446 | NmU-25–induced G protein activation of NMU2 (NMU2 F284A; Log [NmU-25] M -7, single replicates): 16.596 and 4.555 and 25.4325 and 3.668 and -4.14 | NmU-25–induced G protein activation of NMU2 (NMU2 F284A; Log [NmU-25] M -8, single replicates): 37.8124 and 33.3355 and -35.58 and 1.433 and 3.8556 | NmU-25–induced G protein activation of NMU2 (NMU2 F284A; Log [NmU-25] M -9, single replicates): 18.5281 and 39.1515 and -3.291 and -33.2453 and 1.059 | NmU-25–induced G protein activation of NMU2 (NMU2 F284A; Log [NmU-25] M -10, single replicates): -33.6452 and 11.984 and -41.6359 and -19.8948 and -2.9799 | NmU-25–induced G protein activation of NMU2 (NMU2 F284A; Log [NmU-25] M -11, single replicates): -12.488 and 31.0606 and -18.1089 and -17.8891 and -12.403 | G protein activation (TRUPATH), dose-response point (NMU2 F284A; Log [agonist] M -4): 51.7867 and 36.0609 and 47.0977 | EC50 (NMU2 E127A; read-out: EC50, NmU-25 alone): 2140 nM | EC50 (NMU2 E127A; [4]): 2140 nM | potency (in words) (NMU2 E102A [2]): complete loss of potency | EC50 (NMU2 F131L; read-out: EC50, NmU-25 alone): 11 nM | EC50 (NMU2 F131L; [4]): 10.7 nM | EC50 ratio EC50(mutant)/EC50(WT) (NMU2 F305A): 77 | Span (window between Emax and minimal agonist response) (NMU2 F305A): 95±11 % of WT | G protein activation (TRUPATH), dose-response point (NMU2 F305A; Log [agonist] M -4): 46.0579 and 58.1697 and 76.8594 and 61.8818 | ΔpEC50 (from WT) (NMU2 F305A; individual experiments): -2.165 and -2.457 and -1.8628 and -2.734 | Emax (NMU2 F305A; peer review file): 83% | potency reduction (NMU2 F305A; peer review file): 33 fold | EC50 (NMU2 F305A; read-out: EC50): 2600 nM | EC50 (NMU2 F305A; [3]): 2630 nM | EC50 ratio EC50(mutant)/EC50(WT) (NMU2 F126A): 18 | Span (window between Emax and minimal agonist response) (NMU2 F126A): 27±10 % of WT | G protein activation (TRUPATH), dose-response point (NMU2 F126A; Log [agonist] M -4): 26.6728 and 20.7775 | ΔpEC50 (from WT) (NMU2 F126A; individual experiments): -2.148 and -1.125 and -1.6853 | EC50 (NMU2 F126A; read-out: EC50): 625 nM | EC50 (NMU2 F126A; [3]): 631 nM | EC50 ratio EC50(mutant)/EC50(WT) (NMU2 F291A): 22 | Span (window between Emax and minimal agonist response) (NMU2 F291A): 126±11 % of WT | G protein activation (TRUPATH), dose-response point (NMU2 F291A; Log [agonist] M -4): 101.173 and 139.066 | G protein activation (TRUPATH), dose-response point (NMU2 F291A; Log [agonist] M -5): 80.701 and 107.283 and 106.417 | span (NMU2 F291A; compared with wild-type, peer review file): 127% | ΔpEC50 (from WT) (NMU2 F291A; individual experiments): -0.7238 and -1.311 and -0.9879 | EC50 (NMU2 F291A; read-out: EC50): 737 nM | EC50 (NMU2 F291A; [3]): 741 nM | EC50 ratio EC50(mutant)/EC50(WT) (NMU2 N306Q): 14 | Span (window between Emax and minimal agonist response) (NMU2 N306Q): 101±10 % of WT | G protein activation (TRUPATH), dose-response point (NMU2 N306Q; Log [agonist] M -4): 89.9582 and 52.9953 and 88.5352 | G protein activation (TRUPATH), dose-response point (NMU2 N306Q; Log [agonist] M -5): 95.8006 and 91.3095 and 87.6434 | ΔpEC50 (from WT) (NMU2 N306Q; individual experiments): -1.093 and -0.9304 and -1.223 | EC50 (NMU2 N306Q; read-out: EC50): 466 nM | EC50 (NMU2 N306Q; [3]): 468 nM
